Source: patent publication US11401234B2, “Deuterated compounds and uses thereof” (priority 2012, dated 2022)
Values joined by “and” are separate entries in the source; they are usually repeats but may differ in a detail not shown here. Equal entries are not always repeated.

What was measured:
[1] = tested on: LNCaP xenograft tumours; test: LNCaP xenograft tumour growth (calliper tumour volumes); type: in vivo, SCID mice
[2] = tested on: 22Rv1 xenograft tumours; test: 22Rv1 xenograft tumour growth (calliper tumour volumes); type: in vivo, SCID mice; conditions: 2 mg/kg/day oral gavage
Excerpt: (ii) Effect of Bicalutamide on Blood Vessels in 22Rv1 Tumour Xenografts • Dorsal skin folds were secured using window chambers onto the backs of male SCID mice (>8 weeks). […] Tumour volume was normalised to day 6 (ie pre-prodrug addition).

[3] = tested on: 22Rv1 prostate tumours; test: Tumour oxygenation (pO2) by Oxylite oxygen electrode probe in xenografts; type: in vivo, SCID mice
Procedure: • 22Rv1 cells grow as a solid tumour on the backs of SCID mice. • Tumour oxygenation was measured over 28 days in vehicle and bicalutamide (2 mg/kg/day) treated mice (see Table 3 above). • Bicalutamide caused a drop in tumour oxygenation (as shown in FIG. 10); from ˜15.3 mmHg (2% oxygen) to 2.0 mmHg (0.3% oxygen) at day 7 and to 0.5 mmHg (0.1% oxygen) at day 14. […] However, during the subsequent week (probably related to tumour size) the median oxygen levels […] to about 3 mmHg (0.4% oxygen) and do indicate recovery.

[4] = tested on: A549 cells
[5] = tested on: Human T cell leukaemia cells (Jurkat); test: Inhibition of cell proliferation in air or 1% oxygen (Coulter Counter relative cell number); type: cell-based; conditions: 4 days, range of concentrations

CC(O)(CS(=O)(=O)c1ccc(F)cc1)C(=O)Nc1ccc(C#N)c(C(F)(F)F)c1 (stereo not drawn) [Bicalutamide] was tested, and the “Time to 2x start volume” value ([1]; bicalutamide 2 mg/kg/day oral 28 days, OCT1002 50 mg/kg i.p. single dose day 7) was 16.2 ± 1.94 days, the “Growth Delay” value ([1]; versus vehicle, time to reach twice the treatment size) was 5.1 days and 5 ± 3.82 days and the “time to reach four times the volume at the start of treatment” value [2] was 18.5 ± 0.8 days. For the same compound, the Growth Delay ([2]; versus vehicle, time to four times start volume) was 4.5 days, the “Mean pO2 ± SD” value ([3]; day 0 (before commencement of treatment), 2 mg/kg/day oral gavage group, 2 mg/kg/day) was 15.277 ± 11.254 mmHg and the tumour oxygenation ([3]; day 0, 2 mg/kg/day group) was 2 % oxygen. The tumour oxygenation ([3]; day 7, 2 mg/kg/day) was 0.3 % oxygen, the “Mean pO2 ± SD” value ([3]; day 7 of treatment, 2 mg/kg/day oral gavage, 2 mg/kg/day) was 2.0 mmHg and 1.996 ± 1.989 mmHg and the tumour oxygenation ([3]; day 14, 2 mg/kg/day) was 0.1 % oxygen. For the same compound, the “Mean pO2 ± SD” value ([3]; day 14 of treatment, 2 mg/kg/day oral gavage, 2 mg/kg/day) was 0.5 mmHg and 0.486 ± 0.107 mmHg, the “Mean pO2 ± SD” value ([3]; day 21 of treatment, 2 mg/kg/day oral gavage) was 1.291 ± 0.291 mmHg and the “Mean pO2 ± SD” value ([3]; day 28 of treatment, 2 mg/kg/day oral gavage) was 11.905 ± 0.861 mmHg.

In the case of [2H]C([2H])([2H])N(CCNc1ccc(NCCN(C([2H])([2H])[2H])C([2H])([2H])[2H])c2c1C(=O)c1c(O)ccc(O)c1C2=O)C([2H])([2H])[2H] [OCT1001, 1,4-bis-{[2-(deuterated-d6-dimethylamino)ethyl]amino)-5,8-dihydroxy-anthracene-9,10-dione], the “loss of intracellular fluorescence attributable to metabolite, compared with AQ4” value ([4]; after 24 h post exposure recovery in drug free medium, normal oxygenation) is reported as “reduced loss” and the “cellular accumulation of intracellular fluorescence attributable to metabolite, compared with AQ4” value ([4]; after 4 day prodrug exposure under 1% oxygen) is reported as “reduced cellular accumulation”.

COc1cc([C@@H]2c3cc4c(cc3[C@@H](O[C@@H]3O[C@@H]5CO[C@@H](C)O[C@H]5[C@H](O)[C@H]3O)[C@H]3COC(=O)[C@H]23)OCO4)cc(OC)c1O [VP-16] was tested, and the “inhibition of cell proliferation (cytostatic activity, relative cell number)” value [5] was “hypoxia does not modify the cytostatic action”.
